{
  "source": "patent US20070161592A1",
  "about": "“Method of treating fear” (priority 2005, published 2007)",
  "key": {"[1]": {"test_system": "pyramidal neurons in layer II/III of ACC slices", "test": "LTP induced by pairing training, whole-cell patch-clamp recordings in ACC slices", "type": "cell-based, mouse", "settings": "for effect on LTP induced by pairing training: FIG. 3", "description": "Experiments were performed in a recording chamber on the stage of an Axioskop 2FS microscope with infrared DIC optics for visualizing whole-cell patch clamp recordings. EPSCs were recorded from layer II-III neurons using an Axon 200B amplifier (Axon Instruments, CA) and stimulations were delivered using a bipolar tungsten stimulating electrode placed in layer V of the ACC. In hippocampal slices, EPSCs were evoked by stimulating the Schaffer collateral-commissural pathway. EPSCs were induced by repetitive stimulations at 0.02 Hz and neurons were voltage clamped at −70 mV. […] The first protocol involved paired presynaptic 80 pulses at 2 Hz with postsynaptic depolarization at +30 mV (referred to as pairing training). The second involved paired 3 presynaptic stimuli that caused 3 EPSPs (10 ms ahead) with 3 postsynaptic APs at 30 Hz, paired 15 times every 5 s (named as EPSPs-APs protocol). The third involved theta-burst stimulation (5 trains of burst with 4 pulses at 100 Hz, at 200 ms interval; repeated 4 times at intervals of 10 s; named as TBS). The NMDAR-mediated component of EPSCs was pharmacologically isolated in Mg^2+-free ACSF containing: CNQX (20 μM), glycine (1 μM) and picrotoxin (100 μM). […] Neurons were voltage clamped at −60 mV and NMDARs-mediated EPSCs were evoked at 0.05 Hz. Picrotoxin (100 μM) was always present to block GABAA receptor-mediated inhibitory synaptic currents. The access resistance was 15-30 MΩ and was monitored throughout the experiment. […] Results are expressed as means±SEM. Statistical comparisons were performed using the Student t-test.\nWhole-cell patch-clamp recordings were conducted in visually identified pyramidal neurons in layer II/III of ACC slices. Pyramidal neurons were identified by injecting depolarized currents into neurons to induce action potentials. […] Pyramidal neurons were also identified based on the pyramid shape of their somata by putting Lucifer yellow into the intracellular solution (FIG. 1A)."}, "[2]": {"test_system": "NR2B siRNA electroporated ACC neurons", "test": "LTP in siRNA electroporated ACC neurons", "type": "cell-based, mouse", "description": "Experiments were performed in a recording chamber on the stage of an Axioskop 2FS microscope with infrared DIC optics for visualizing whole-cell patch clamp recordings. EPSCs were recorded from layer II-III neurons using an Axon 200B amplifier (Axon Instruments, CA) and stimulations were delivered using a bipolar tungsten stimulating electrode placed in layer V of the ACC. In hippocampal slices, EPSCs were evoked by stimulating the Schaffer collateral-commissural pathway. EPSCs were induced by repetitive stimulations at 0.02 Hz and neurons were voltage clamped at −70 mV. The recording pipettes (3-5 MΩ) were filled with solution containing (mM) 145 K-gluconate, 5 NaCl, 1 MgCl2, 0.2 EGTA, 10 HEPES, 2 Mg-ATP, and 0.1 Na3-GTP (adjusted to pH 7.2 with KOH). After obtaining stable EPSCs for 10 min, three kinds of LTP induction paradigms were used within 12 min after establishing the whole-cell configuration to prevent wash out effect on LTP induction (Tsvetkov et al., 2002). The first protocol involved paired presynaptic 80 pulses at 2 Hz with postsynaptic depolarization at +30 mV (referred to as pairing training). The second involved paired 3 presynaptic stimuli that caused 3 EPSPs (10 ms ahead) with 3 postsynaptic APs at 30 Hz, paired 15 times every 5 s (named as EPSPs-APs protocol). The third involved theta-burst stimulation (5 trains of burst with 4 pulses at 100 Hz, at 200 ms interval; repeated 4 times at intervals of 10 s; named as TBS). The NMDAR-mediated component of EPSCs was pharmacologically isolated in Mg^2+-free ACSF containing: CNQX (20 μM), glycine (1 μM) and picrotoxin (100 μM). The patch electrodes contained (in mM) 102 cesium gluconate, 5 TEA-chloride, 3.7 NaCl, 11 BAPTA, 0.2 EGTA, 20 HEPES, 2 MgATP, 0.3 NaGTP, and 5 QX-314 chloride (adjusted to pH 7.2 with CsOH). Neurons were voltage clamped at −60 mV and NMDARs-mediated EPSCs were evoked at 0.05 Hz. Picrotoxin (100 μM) was always present to block GABAA receptor-mediated inhibitory synaptic currents. The access resistance was 15-30 MΩ and was monitored throughout the experiment. […] Results are expressed as means±SEM. […]"}},
  "data": [
    {"molecule": "C[C@@H](CN1CCC(Cc2ccccc2)CC1)[C@@H](O)c1ccc(O)cc1", "note": "[Ro25-6981]", "values": [
      {"measurement": "synaptic responses after pairing training (LTP), % of baseline", "setting": "[1]; 0.3 μM", "result": "132.8±7.4", "unit": "%"},
      {"measurement": "effect on LTP induced by pairing training", "setting": "[1]; 0.3 μM", "result": "partially depressed"},
      {"measurement": "synaptic responses after pairing training (LTP), % of baseline", "setting": "[1]; 3 μM", "result": "126.8±7.5", "unit": "%"},
      {"measurement": "effect on LTP induced by pairing training", "setting": "[1]; 3 μM", "result": "partially depressed"}
    ]},
    {"molecule": "NR2B siRNA: siRNA corresponding to NR2B, sense 5′-GGAUGAGUCCUCCAUGUUCtt-3′, antisense 5′-GAACAUGGAGGACUCAUCCtt-3′, Silencer Pre-designed siRNA ID #61879, Ambion (sense GGAUGAGUCCUCCAUGUUCTT; antisense GAACAUGGAGGACUCAUCCTT; chemistry not given here)", "values": [
      {"measurement": "LTP vs control siRNA electroporated neurons", "setting": "[2]; FIG. 7D", "result": "Smaller LTP"},
      {"measurement": "potentiation (LTP) vs control siRNA electroporated neurons", "setting": "[2]; TBS", "result": "significantly reduced"},
      {"measurement": "potentiation (LTP) vs control siRNA electroporated neurons", "setting": "[2]; pairing training protocol", "result": "significantly reduced"}
    ]}
  ]
}
